The test system of assay [1] is PI3Kβ (LPA-stimulated MEF cells). Nature of the assay: LPA-induced Akt phosphorylation in MEF cells. Type of assay: cell-based, murine. To be noted: up to 0.5 μM; LPA 10 μM; 1 h pre-incubation. The procedure:
In fibroblasts, signals from the insulin-like growth factor 1 (IGF-1) receptor are mediated by PI3Kα, while lysophosphatidic acid (LPA) stimulates G-protein coupled receptor (GPCR) signals via PI3Kβ[26]. After being pre-incubated with X-370, murine embryonic fibroblasts cultured in serum-free medium were stimulated with IGF-1 or LPA. […] Either PI3Kδ or PI3Kγ can be activated in THP-1 monocytes dependent on the stimulating ligand, among which macrophage colony stimulating factor (M-CSF/CSF-1) activates RTK-coupled PI3Kδ, while monocyte chemoattractant protein-1 (MCP-1) activates PI3Kγ [24]. Accordingly, THP-1 cells cultured in serum-free medium were stimulated with MCP-1 or M-CSF in the presence of X-370 and phosphorylated Akt was measured.
Cell lysates were probed with indicated antibodies. The IC50 values were calculated based on relative band intensity measured with ImageQuant™ TL (GE Healthcare Life Sciences, Piscataway, NJ) (B). Data shown are mean values from three independent experiments. (C, D, E, F) X-370 blocked stimuli-triggered PI3Kδ activation. MEF cells and THP-1 were starved in serum-free medium for 12 h or 4 h respectively and X-370 were added for an additional 1 h treatment following stimulation of IGF-1 at 100 ng/ml for MEF cells (C), LPA at 10 μM for MEF cells (D), MCP-1 at 100ng/ml for THP-1 (E) and M-CSF at 50 ng/ml for THP-1 (F). […]

The next assay concerns Raji MEK DD cells. In words: Erk1/2 phosphorylation in Raji cells expressing MEK DD (Western blot). Type of assay: cell-based, human. To be noted: 1 h. The procedure: Figure 5 Inhibition of Erk1/2 phosphorylation by X-370 contributed to its antiproliferative activity (A-C) X-370 inhibited Erk1/2 phosphorylation via PI3K-PDK1-MEK1/2 cascade but not the PI3K-Gab1 positive feedback loop. (A) Raji and SU-DHL-6 cells were exposed to 1 μM X370 for 3 h and protein fraction from cellular membrane was separated using Native Membrane Protein Extraction Kit and probed. WCL: whole cell lysate. (B) Inhibition of PDK1 or MEK1/2 abrogated Erk1/2 phosphorylation. Cells were treated with pharmacological inhibitors of Raf (AZ 628, PLX4032), MEK1/2 (AZD6244), p90RSK (BI-D1870), PI3Kδ (X-370), PDK1 (BX-912), Akt (MK-2206), mTOR (AZD8055) or mTORC1 (Rapamycin) respectively and indicated proteins were detected. (C) X-370 disrupted the association between PDK1 and MEK1/2. Raji cells were treated with 1 μM X370 for 1 h and cell lysates were immunoprecipitated with anti-PDK1 antibody and indicated proteins were detected. WCL: whole cell lysate. […] (E) Raji and Raji MEK DD cells were treated with X-370 for 72 h and cell proliferation was detected by CCK-8 assay. (F) Raji MEK DD cells were treated with X-370 and AZD6244 and cell proliferation was detected by CCK-8 assay. Data were show as mean ± SD of three independent experiments. *: p < 0.05 determined by t-tests at each data point. […]
In general terms: Immunoblotting shows a protein as a band on a membrane.

SMILES strings stand for the structures.

Take `O=C(N1CCCC1)N1CCC(n2cnc3c(-n4c(C(F)F)nc5ccccc54)nc(N4CCOCC4)nc32)CC1` [X-370]: the “LPA-induced Akt phosphorylation” value in assay [1] was “partially inhibited”. Further, the Erk1/2 phosphorylation result in the assay with Raji MEK DD cells is “failed to inhibit”.

(Values after paper PMC4279406, “Simultaneous targeting of PI3Kδ and a PI3Kδ-dependent MEK1/2-Erk1/2 pathway for therapy in pediatric B-cell acute lymphoblastic leukemia” (Oncotarget, 2014).)
